Experimental data taken from PMC10539501 (Nature Communications, 2023).
Starred links: 1 amine or outer side, 2 acyl side, 3 side chain; linkers in the order of their positions; H or OH if unused. Non-standard residues stand in square brackets, D forms with d. Residues, ends and D or L forms follow the SMILES beside them. X3 = CC(C)C[C@H](N[*:1])C(=S)N[C@H](CC(C)C)C(=O)[*:2]; NMeL = CN[C@@H](CC(C)C)C(=O)O

Legend:
in vitro [1] = conditions: pig, simulated intestinal fluid
in vivo = conditions: male, Wistar, rat
pepsin [2] = target: T1, pepsin (Sus scrofa, UniProt P00791); test: in vitro; conditions: simulated gastric fluid, pH 1.2
T1 sequence (P00791 60-385): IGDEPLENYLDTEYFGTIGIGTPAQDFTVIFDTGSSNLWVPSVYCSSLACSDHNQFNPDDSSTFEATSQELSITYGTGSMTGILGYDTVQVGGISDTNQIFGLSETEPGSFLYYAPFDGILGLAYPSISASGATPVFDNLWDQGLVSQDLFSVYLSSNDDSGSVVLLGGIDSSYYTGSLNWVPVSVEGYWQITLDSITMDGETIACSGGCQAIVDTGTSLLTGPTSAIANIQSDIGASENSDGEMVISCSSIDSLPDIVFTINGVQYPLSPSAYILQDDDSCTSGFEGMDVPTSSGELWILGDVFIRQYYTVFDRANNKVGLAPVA

in vitro [3] = conditions: both, human, plasma
Caco-2 cells = test: in vitro; assay type: in vitro ADME, human; conditions: Caco-2
in vitro [4] = assay type: in vitro ADME, human
physchem = conditions: pH 7.4
[5] = PAMPA passive permeability; assay type: in vitro ADME; conditions: for Papp: Pe Avg;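 on all read-outs here: passive permeability across an artificial membrane in 96-well pre-coated PAMPA plates, which lack transporters and efflux systems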
in vitro [6] = conditions: both, human, plasma; remark: listed apart in the source
in vitro [7] = conditions: human, microsomes
[8] = Retention in hydrophobic C18 column by HPLC; conditions: Supplementary Fig 3d, logD7.4 vs tR
[9] = assay type: physicochemical
[10] = HDX of amide protons by NMR in CDCl3:CD3OD (8:2)
[11] = rat, in vivo, po, 10 mg/kg
[12] = assay type: physicochemical; remark: listed apart in the source
[13] = HDX of amide protons by NMR in DMSO-d6:D2O (8:2); conditions: HDX by NMR, 20% D2O in DMSO-d6
pepsin [14] = target: T1, pepsin; conditions: pH 1.2
[15] = 20% CD3OD in CDCl3, % remaining after 24 hours
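Wherever Papp A-B avg (second block) is given: Caco-2 monolayers used 21 days after seeding in HBSS-HEPES buffer with 1% DMSO, donor and acceptor levels quantified by LC-MS/MS, TEER checked before and after.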
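Wherever Papp A-B set 1 (second block) is given: Caco-2 monolayers used 21 days after seeding in HBSS-HEPES buffer with 1% DMSO, donor and acceptor levels quantified by LC-MS/MS, TEER checked before and after.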
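Wherever Papp A-B set 2 (second block) is given: Caco-2 monolayers used 21 days after seeding in HBSS-HEPES buffer with 1% DMSO, donor and acceptor levels quantified by LC-MS/MS, TEER checked before and after.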
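Wherever Papp B-A avg (second block) is given: Caco-2 monolayers used 21 days after seeding in HBSS-HEPES buffer with 1% DMSO, donor and acceptor levels quantified by LC-MS/MS, TEER checked before and after.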

CC(C)C[C@@H]1NC(=O)[C@@H](CC(C)C)NC(=S)[C@H](CC(C)C)NC(=O)[C@H](Cc2ccc(O)cc2)NC(=O)[C@H]2CCCN2C(=O)[C@H](CC(C)C)NC1=O [10f] (cyclo(LL[dP]Y[X3]))
half-life (in vitro [1]): 2.1 h | remaining at 10 min (in vitro [1]): 80.9% | remaining at 0.5 h (in vitro [1]): 67.2% | remaining at 1 h (in vitro [1]): 56.5% | remaining at 2 h (in vitro [1]): 48.1% | remaining at 4 h (in vitro [1]): 42.9% | remaining at 8 h (in vitro [1]): 31.7% | remaining at 12 h (in vitro [1]): 24.6% | remaining at 24 h (in vitro [1]): 17.2% | AUC(0-t) (in vivo; iv): 390 ng·h/mL | Cmax (in vivo; iv): 580 ng/mL | MRT (in vivo; iv): 1.1 h | Vd (in vivo; iv): 3.2 L/kg | clearance (in vivo; iv): 42.2 mL/min/kg | bioavailability (in vivo; po): 3.1% | AUC(0-t) (in vivo; po, 10 mg/kg): 121 ng·h/mL | Cmax (in vivo; po, 10 mg/kg): 61.7 ng/mL | MRT (in vivo; po, 10 mg/kg): 2.1 h | level at 3 h (in vivo; po, 10 mg/kg): 13.1 ng/mL | Half lives (human liver microsomes): 42.3 | Half lives (SIF) Avg (pancreatin): 128 min | Half lives (SIF) set1 (pancreatin): 184 min | Half lives (SIF) set2 (pancreatin): 94 min | Half lives (SIF) set3 (pancreatin): 108 min | half-life (pepsin [2]): 1.3 h | remaining at 5 min (pepsin [2]): 78% | remaining at 10 min (pepsin [2]): 73% | remaining at 20 min (pepsin [2]): 67% | remaining at 0.5 h (pepsin [2]): 61% | remaining at 1 h (pepsin [2]): 54% | remaining at 2 h (pepsin [2]): 44% | remaining at 4 h (pepsin [2]): 34% | remaining at 8 h (pepsin [2]): 24% | remaining at 12 h (pepsin [2]): 15% | remaining at 24 h (pepsin [2]): 9% | fraction unbound (in vitro [3]): 0.02 | Papp A-B avg (second block) (Caco-2 cells): 3.01 ×10⁻⁶ cm/s | Papp A-B set 1 (second block) (Caco-2 cells): 4.57 ×10⁻⁶ cm/s | Papp A-B set 2 (second block) (Caco-2 cells): 1.45 ×10⁻⁶ cm/s | Papp B-A avg (second block) (Caco-2 cells): 41.8 ×10⁻⁶ cm/s | Papp B-A set 1 (second block) (Caco-2 cells): 39.7 ×10⁻⁶ cm/s | Papp B-A set 2 (second block) (Caco-2 cells): 43.9 ×10⁻⁶ cm/s | Papp A→B (in vitro [4]; Caco-2, Papp A-B + Elacridar avg): 6.8 ×10⁻⁶ cm/s | Papp A→B (in vitro [4]; Caco-2, Papp A-B avg): 3.01 ×10⁻⁶ cm/s | Papp B→A (in vitro [4]; Caco-2, Papp B-A + Elacridar avg): 8.9 ×10⁻⁶ cm/s | Papp B→A (in vitro [4]; Caco-2, Papp B-A avg): 41.8 ×10⁻⁶ cm/s | logD (physchem): 1.53 | Pe Avg [5]: 7.3 ×10⁻⁶ cm/s | Pe set1 [5]: 7.27 ×10⁻⁶ cm/s | Pe set2 [5]: 9.86 ×10⁻⁶ cm/s | Pe set3 [5]: 4.7 ×10⁻⁶ cm/s | Papp [5]: 7.3 ×10⁻⁶ cm/s | Protein binding set1 (plasma proteins): 100% | Protein binding set2 (plasma proteins): 100% | Protein binding set3 (plasma proteins): 95% | half-life (in vitro [6]): 18 h | remaining at 1 h (in vitro [6]): 92% | remaining at 3 h (in vitro [6]): 87% | remaining at 5 h (in vitro [6]): 84% | remaining at 7 h (in vitro [6]): 79% | remaining at 9 h (in vitro [6]): 63% | remaining at 12 h (in vitro [6]): 54% | remaining at 24 h (in vitro [6]): 38% | remaining at 36 h (in vitro [6]): 22% | remaining at 48 h (in vitro [6]): 25% | remaining at 60 h (in vitro [6]): 26% | remaining at 72 h (in vitro [6]): 21% | microsomal CLint (in vitro [7]): 33 µL/min/mg | remaining at 5 min (in vitro [7]): 78% | remaining at 10 min (in vitro [7]): 71% | remaining at 20 min (in vitro [7]): 62% | remaining at 0.5 h (in vitro [7]): 56% | remaining at 0.75 h (in vitro [7]): 48% | remaining at 1 h (in vitro [7]): 38% | tR [8]: 14 min | logD heptane ethylene glycol [9]: 1.08 | Half-life of D-Leu1 amide proton (HDX) ([10]; 20% CD3OD in CDCl3): 0.167 h | Half-life of Leu2 amide proton (HDX) ([10]; 20% CD3OD in CDCl3): 8.33 h | Half-life of Leu3 amide proton (HDX) ([10]; 20% CD3OD in CDCl3): 3.27 h | Half-life of Leu6 amide proton (HDX) ([10]; 20% CD3OD in CDCl3): > 24 h | Half-life of Tyr5 amide proton (HDX) ([10]; 20% CD3OD in CDCl3): > 24 h | % intact NH, Leu6 [10, 15]: 52% | % intact NH, Tyr5 [10, 15]: 67% | AUClast p.o [11]: 120.8 ng·h/mL | time over which the peptide is detectable in plasma [11]: ≥ 8 h | % solubility [12]: 23% | Half-life of D-Leu1 amide proton (HDX) [13]: 1 min | Half-life of Leu2 amide proton (HDX) [13]: 11.7 h | Half-life of Leu3 amide proton (HDX) [13]: 13.2 h | Half-life of Leu6 amide proton (HDX) [13]: 12 h | Half-life of Tyr5 amide proton (HDX) [13]: 18 h

CC(C)C[C@@H]1NC(=O)[C@H](Cc2ccc(O)cc2)NC(=O)[C@H]2CCCN2C(=O)[C@H](CC(C)C)NC(=O)[C@H](CC(C)C)N(C)C(=O)[C@@H](CC(C)C)NC1=O [10h] (cyclo(L[dL][NMeL]L[dP]Y))
half-life (in vitro [1]): 0.933 h | remaining at 10 min (in vitro [1]): 71% | remaining at 0.5 h (in vitro [1]): 63% | remaining at 1 h (in vitro [1]): 47% | remaining at 2 h (in vitro [1]): 27% | remaining at 4 h (in vitro [1]): 16% | remaining at 8 h (in vitro [1]): 2.66% | remaining at 12 h (in vitro [1]): 1% | AUC(0-t) (in vivo; iv): 212 ng·h/mL | Cmax (in vivo; iv): 435 ng/mL | MRT (in vivo; iv): 0.4 h | Vd (in vivo; iv): 2.3 L/kg | clearance (in vivo; iv): 79.5 mL/min/kg | bioavailability (in vivo; po): 1.2% | AUC(0-t) (in vivo; po, 10 mg/kg): 25.9 ng·h/mL | Cmax (in vivo; po, 10 mg/kg): 13.1 ng/mL | MRT (in vivo; po, 10 mg/kg): 1.3 h | level at 3 h (in vivo; po, 10 mg/kg): 3.2 ng/mL | Half lives (human liver microsomes): 28.7 | remaining at 2 min (pepsin [2]): 97% | remaining at 10 min (pepsin [2]): 89% | remaining at 20 min (pepsin [2]): 79% | remaining at 0.5 h (pepsin [2]): 67% | remaining at 1 h (pepsin [2]): 57% | remaining at 2 h (pepsin [2]): 26% | remaining at 4 h (pepsin [2]): 16% | remaining at 8 h (pepsin [2]): 8% | remaining at 12 h (pepsin [2]): 3% | fraction unbound (in vitro [3]): 0.3 | logD (physchem): 1.46 | Papp [5]: 9.07 ×10⁻⁶ cm/s | half-life (in vitro [6]): 18 h | remaining at 2 h (in vitro [6]): 89% | remaining at 4 h (in vitro [6]): 77% | remaining at 8 h (in vitro [6]): 68% | remaining at 16 h (in vitro [6]): 56% | remaining at 24 h (in vitro [6]): 30% | remaining at 48 h (in vitro [6]): 13% | remaining at 72 h (in vitro [6]): 3.27% | Half lives (SGF) Avg (pepsin [14]): 65.5 min | Half lives (SGF) set1 (pepsin [14]): 52 min | microsomal CLint (in vitro [7]): 49 µL/min/mg | remaining at 2 min (in vitro [7]): 99% | remaining at 10 min (in vitro [7]): 94% | remaining at 20 min (in vitro [7]): 65% | remaining at 0.5 h (in vitro [7]): 49% | remaining at 0.75 h (in vitro [7]): 27% | remaining at 1 h (in vitro [7]): 13% | Fold Change of AUClast p.o [11]: 29
